Assay results: ChEMBL document CHEMBL4715697, “Synthesis and biological activity of benzamide DNA minor groove binders” (2016)

Experiments:
Assay type in all cases: functional
Details in all cases: read-out: Activity
[1] = test system: MCF7; assay: Growth inhibition of human MCF7 cells assessed as cell growth at 10 uM incubated for 48 hrs by sulforhodamine B assay relative to control
[2] = test system: HT-29; assay: Growth inhibition of human HT-29 cells assessed as cell growth at 10 uM incubated for 48 hrs by sulforhodamine B assay relative to control
[3] = test system: MDA-MB-231; assay: Growth inhibition of human MDA-MB-231 cells assessed as cell growth at 10 uM incubated for 48 hrs by sulforhodamine B assay relative to control
[4] = test system: SF-268; assay: Growth inhibition of human SF-268 cells assessed as cell growth at 10 uM incubated for 48 hrs by sulforhodamine B assay relative to control
[5] = test system: T47D; assay: Growth inhibition of human T47D cells assessed as cell growth at 10 uM incubated for 48 hrs by sulforhodamine B assay relative to control
[6] = test system: BT-549; assay: Growth inhibition of human BT-549 cells assessed as cell growth at 10 uM incubated for 48 hrs by sulforhodamine B assay relative to control
[7] = test system: NCI/ADR-RES; assay: Growth inhibition of human NCI/ADR-RES cells assessed as cell growth at 10 uM incubated for 48 hrs by sulforhodamine B assay relative to control
[8] = test system: SF-539; assay: Growth inhibition of human SF-539 cells assessed as cell growth at 10 uM incubated for 48 hrs by sulforhodamine B assay relative to control
[9] = test system: OVCAR-5; assay: Growth inhibition of human OVCAR-5 cells assessed as cell growth at 10 uM incubated for 48 hrs by sulforhodamine B assay relative to control
[10] = test system: HOP-62; assay: Growth inhibition of human HOP-62 cells assessed as cell growth at 10 uM incubated for 48 hrs by sulforhodamine B assay relative to control
[11] = test system: HCC 2998; assay: Growth inhibition of human HCC 2998 cells assessed as cell growth at 10 uM incubated for 48 hrs by sulforhodamine B assay relative to control
[12] = test system: HCT-15; assay: Growth inhibition of human HCT-15 cells assessed as cell growth at 10 uM incubated for 48 hrs by sulforhodamine B assay relative to control
[13] = test system: A549; assay: Growth inhibition of human A549/ATCC cells assessed as cell growth at 10 uM incubated for 48 hrs by sulforhodamine B assay relative to control
[14] = test system: DU-145; assay: Growth inhibition of human DU-145 cells assessed as cell growth at 10 uM incubated for 48 hrs by sulforhodamine B assay relative to control
[15] = test system: SNB-75; assay: Growth inhibition of human SNB-75 cells assessed as cell growth at 10 uM incubated for 48 hrs by sulforhodamine B assay relative to control
[16] = test system: LOX IMVI; assay: Growth inhibition of human LOX IMVI cells assessed as cell growth at 10 uM incubated for 48 hrs by sulforhodamine B assay relative to control
[17] = test system: K562; assay: Growth inhibition of human K562 cells assessed as cell growth at 10 uM incubated for 48 hrs by sulforhodamine B assay relative to control
[18] = test system: OVCAR-8; assay: Growth inhibition of human OVCAR-8 cells assessed as cell growth at 10 uM incubated for 48 hrs by sulforhodamine B assay relative to control
[19] = test system: HCT-116; assay: Growth inhibition of human HCT-116 cells assessed as cell growth at 10 uM incubated for 48 hrs by sulforhodamine B assay relative to control
[20] = test system: MDA-MB-468; assay: Growth inhibition of human MDA-MB-468 cells assessed as cell growth at 10 uM incubated for 48 hrs by sulforhodamine B assay relative to control
[21] = test system: M14; assay: Growth inhibition of human M14 cells assessed as cell growth at 10 uM incubated for 48 hrs by sulforhodamine B assay relative to control
[22] = test system: SW-620; assay: Growth inhibition of human SW-620 cells assessed as cell growth at 10 uM incubated for 48 hrs by sulforhodamine B assay relative to control
[23] = test system: NCI-H226; assay: Growth inhibition of human NCI-H226 cells assessed as cell growth at 10 uM incubated for 48 hrs by sulforhodamine B assay relative to control
[24] = test system: NCI-H322M; assay: Growth inhibition of human NCI-H322M cells assessed as cell growth at 10 uM incubated for 48 hrs by sulforhodamine B assay relative to control
[25] = test system: HL-60(TB); assay: Growth inhibition of human HL-60(TB) cells assessed as cell growth at 10 uM incubated for 48 hrs by sulforhodamine B assay relative to control
[26] = test system: SK-MEL-5; assay: Growth inhibition of human SK-MEL-5 cells assessed as cell growth at 10 uM incubated for 48 hrs by sulforhodamine B assay relative to control
[27] = test system: PC-3; assay: Growth inhibition of human PC-3 cells assessed as cell growth at 10 uM incubated for 48 hrs by sulforhodamine B assay relative to control
[28] = test system: SK-OV-3; assay: Growth inhibition of human SK-OV-3 cells assessed as cell growth at 10 uM incubated for 48 hrs by sulforhodamine B assay relative to control
[29] = test system: UACC-257; assay: Growth inhibition of human UACC-257 cells assessed as cell growth at 10 uM incubated for 48 hrs by sulforhodamine B assay relative to control
[30] = test system: EKVX; assay: Growth inhibition of human EKVX cells assessed as cell growth at 10 uM incubated for 48 hrs by sulforhodamine B assay relative to control
[31] = test system: MOLT-4; assay: Growth inhibition of human MOLT-4 cells assessed as cell growth at 10 uM incubated for 48 hrs by sulforhodamine B assay relative to control
[32] = test system: 786-0; assay: Growth inhibition of human 786-0 cells assessed as cell growth at 10 uM incubated for 48 hrs by sulforhodamine B assay relative to control
[33] = test system: NCI-H522; assay: Growth inhibition of human NCI-H522 cells assessed as cell growth at 10 uM incubated for 48 hrs by sulforhodamine B assay relative to control
[34] = test system: OVCAR-3; assay: Growth inhibition of human OVCAR-3 cells assessed as cell growth at 10 uM incubated for 48 hrs by sulforhodamine B assay relative to control
[35] = test system: NCI-H23; assay: Growth inhibition of human NCI-H23 cells assessed as cell growth at 10 uM incubated for 48 hrs by sulforhodamine B assay relative to control
[36] = test system: TK-10; assay: Growth inhibition of human TK-10 cells assessed as cell growth at 10 uM incubated for 48 hrs by sulforhodamine B assay relative to control
[37] = test system: UO-31; assay: Growth inhibition of human UO-31 cells assessed as cell growth at 10 uM incubated for 48 hrs by sulforhodamine B assay relative to control
[38] = test system: KM12; assay: Growth inhibition of human KM12 cells assessed as cell growth at 10 uM incubated for 48 hrs by sulforhodamine B assay relative to control
[39] = test system: CAKI-1; assay: Growth inhibition of human CAKI-1 cells assessed as cell growth at 10 uM incubated for 48 hrs by sulforhodamine B assay relative to control

SMILES | growth at 10 µM [1] | growth at 10 µM [2] | growth at 10 µM [3] | growth at 10 µM [4] | growth at 10 µM [5] | growth at 10 µM [6] | growth at 10 µM [7] | growth at 10 µM [8] | growth at 10 µM [9] | growth at 10 µM [10] | growth at 10 µM [11] | growth at 10 µM [12] | growth at 10 µM [13] | growth at 10 µM [14] | growth at 10 µM [15] | growth at 10 µM [16] | growth at 10 µM [17] | growth at 10 µM [18] | growth at 10 µM [19] | growth at 10 µM [20] | other results
CC(=O)Nc1ccc(C(=O)Nc2cc(CO)cc(NC(C)=O)c2)cc1 | 95.3% | 106% | 115% | 108% | 94.7% | 108% | 110% | 107% | 105% | 106% | 99.4% | 106% | 108% | 108% | 96.7% | 105% | 99.5% | 109% | 106% | 97% | growth at 10 µM [21]: 98.3%; growth at 10 µM [22]: 118%; growth at 10 µM [23]: 99.9%; growth at 10 µM [24]: 109%; growth at 10 µM [25]: 101%; growth at 10 µM [26]: 98.8%; growth at 10 µM [27]: 104%; growth at 10 µM [28]: 105%; growth at 10 µM [29]: 107%; growth at 10 µM [30]: 112%; growth at 10 µM [31]: 96%; growth at 10 µM [32]: 99.4%; growth at 10 µM [33]: 89.5%; growth at 10 µM [34]: 123%; growth at 10 µM [35]: 107%; growth at 10 µM [36]: 101%; growth at 10 µM [37]: 101%; growth at 10 µM [38]: 115%
CC(=O)Nc1cc(CO)cc(NC(=O)c2ccc(C(=O)NCCCN(C)C)cc2)c1 | 101% | 100% | 105% | 114% | 92.9% | 98.6% | 112% | 110% | 107% | 110% | 102% | 106% | 107% | 115% | 87.8% | 97.4% | 104% | 108% | 104% | 91.2% | growth at 10 µM [39]: 109%; growth at 10 µM [21]: 98.6%; growth at 10 µM [22]: 107%; growth at 10 µM [23]: 92%; growth at 10 µM [24]: 121%; growth at 10 µM [25]: 104%; growth at 10 µM [26]: 96.4%; growth at 10 µM [27]: 97.9%; growth at 10 µM [28]: 106%; growth at 10 µM [29]: 107%; growth at 10 µM [30]: 108%; growth at 10 µM [31]: 95.4%; growth at 10 µM [32]: 102%; growth at 10 µM [33]: 88.4%; growth at 10 µM [34]: 129%; growth at 10 µM [35]: 104%; growth at 10 µM [36]: 99%; growth at 10 µM [37]: 98.1%; growth at 10 µM [38]: 118%
CC(=O)Nc1cccc(NC(=O)c2ccc(C(=O)Nc3cc(CCl)cc(NC(C)=O)c3)cc2)c1 | 102% | 111% | 115% | 115% | 95.8% | 108% | 109% | 109% | 112% | 112% | 103% | 109% | 118% | 119% | 113% | 110% | 104% | 108% | 116% | 82.2% | growth at 10 µM [39]: 115%; growth at 10 µM [21]: 104%; growth at 10 µM [22]: 114%; growth at 10 µM [23]: 101%; growth at 10 µM [24]: 125%; growth at 10 µM [25]: 93.4%; growth at 10 µM [26]: 102%; growth at 10 µM [27]: 95.2%; growth at 10 µM [28]: 113%; growth at 10 µM [29]: 106%; growth at 10 µM [30]: 114%; growth at 10 µM [31]: 93.3%; growth at 10 µM [32]: 112%; growth at 10 µM [33]: 90.8%; growth at 10 µM [34]: 128%; growth at 10 µM [35]: 107%; growth at 10 µM [36]: 113%; growth at 10 µM [37]: 104%; growth at 10 µM [38]: 118%
